Tests used:
VAP-1/SSAO [1] = molecular target: T1, VAP-1/SSAO (Homo sapiens (Human), UniProt Q16853); assay: VAP-1 cell activity assay (HUVEC or CHO cells transfected with VAP-1/pCDNA (3.1) plasmid, Amplex Red); format: cell-based; details: HUVEC or CHO cells transfected with VAP-1 plasmid; read-out: VAP-1/SSAO Cellular Inhibitory Activity IC50
Protocol: The inhibition of the sample on VAP-1 cell activity was measured by using an Amplex® Red Monoamine Oxidase kit (Invitrogen #A12214).
The cultured HUVEC or CHO cells were plated into a 6-well plate at a density of 0.8 M/well, placed in a 37° C., 5% CO2 incubator for incubation for 24 hours, and then the cells was transferred with a Lipo2000 reagent and a VAP-1/pCDNA (3.1) plasmid, and liquid was changed for the cells after 5 hours (Lipo2000 was toxic to the cells); after 24 hours, the cells were digested and plated into 384-well plates with a density of 25 μl, 10000 cells/well, and liquid was replaced with medium without FBS for the cells after 6-7 hours, and the cell plates were incubated overnight at 37° C. in a 5% CO2 incubator.
1) Dilution of the compound: serial dilution in 4× gradient was carried out with 100% DMSO, 10 points were diluted, the starting concentration of the to-be-tested compound was 0.5 mM (final concentration was 1 μM); 100 nl of compound solution was transferred to a 384-well cell assay plate with ECHO. Negative control wells: 100 nl of DMSO; background control wells: 100 nl DMSO+25 μL medium.
2) The reaction was carried out in the dark at room temperature for 30 min.
3) Preparation of Amplex Red reagent+HRP+benzylamine substrate working solution: Amplex Red reagent+HRP+benzylamine substrate working solution (200 μM Amplex Red reagent+1 U/mL HRP+1 mM benzylamine): 45 μl of 20 mM Amplex Red reagent mother solution, 22.5 μl of 200 U/ml horseradish peroxidase (HRP) mother solution and 45 ul of 100 mM benzylamine were tanken and added to 4.3875 ml of 1× reaction buffer.
4) After 30 min, 25 μl of the substrate working solution was added to a 384-well plate, and a final concentration was 100 μM Amplex Red reagent+0.5 U/mL HRP+0.5 mM benzylamine, respectively.
5) The reaction was carried out in the dark at room temperature for 60 minutes, and the fluorescence value was measured by Envision: the excitation wave was 535 nm, and the emission wave was 590 nm.
6) Inhibition rate calculation formula: % inhibition rate=(1−(test hole minus background−positive control well minus background)/(negative control well minus background-positive control well minus background))*100
7) The data were analyzed with Prism. The IC50 of the sample against VAP-1 cells was calculated.

hERG potassium channel = hERG potassium channel (Homo sapiens (Human), UniProt Q12809); assay: Inhibition test of hERG potassium ion channel (automatic patch clamp, CHO-hERG cells); format: cell-based
Protocol: The effect of the to-be-tested compound on the potassium ion channel of hERG was detected by a fully automatic patch clamp method.
The cells stably expressing hERG potassium channel used in the experiment were obtained from CHO-hERE of Aviva Biosciences, and CHO-hERG was cultured in 5% CO2 at 37° C.
CHO-hERG cells prepared for the experiment were cultured for at least two days, and the cell density reached 75% or more. Prior to the start of the experiment, cells were digested with TrypLE and then resuspended in extracellular fluid to collect the cells.
The to-be-tested compound and the positive control Amitriptyline were dissolved in DMSO to a certain concentration of the stock solution, and then diluted according to different gradients, and finally added to the extracellular fluid in a certain ratio, and diluted to a concentration to be measured. Visual inspection was performed to see if there was any precipitation before the start of the experiment. Finally, the concentration of DMSO in the to-be-tested solution and the positive control Amitriptyline should not exceed 0.3%.
The clamping potential was kept at −80 mv, first a voltage stimulation of −50 mv was given for 80 ms to record the cell leakage current value, and then was depolarized to +20 mv to be maintained for 4800 ms, the channel of hERG was open, and then repolarized to −50 mv to be maintained 5000 ms, hERG tail current was led out and recorded, and finally, the voltage was returned to the clamping potential of −80 mv to be maintained for 3100 ms. The above voltage stimulation was repeated once every 15000 ms.
hERG QPatch^HTX experiment was performed at room temperature. A whole cell protocol, a voltage stimulation protocol and a compound detection protocol were established on the software of QPatch Assay Software 5.2 (Sophion Bioscience).
First, 30 repeated set voltage stimulations were performed, which was the baseline area for subsequent analysis, followed by the addition of 5 μl of extracellular fluid, repeated for three times. The concentration of each compound added in sequence was repeated three times in a volume of 5 μl. The cells were incubated for at least 5 min at each test concentration. During the entire recording process, the indicators needed to meet the data analysis acceptance criteria. If the standard was not met, the cells would not be included in the analysis scope, and the compounds would be retested. The above recording process was automatically operated by Qpatch analysis software. […]
In each complete current record, based on the percentage of peak current in the negative control, the percent inhibition of the concentration of each compound can be calculated. […]

VAP-1/SSAO [2] = molecular target: T1, VAP-1/SSAO; assay: Human VAP-1 enzyme activity assay (Amplex Red Monoamine Oxidase kit); format: biochemical; details: 10 nM VAP-1 enzyme, 30 min preincubation, benzylamine substrate; read-out: Human Recombinant VAP-1/SSAO Enzyme Inhibitory Activity IC50
Protocol: Human VAP-1 enzyme activity assay:
The inhibition of the sample on VAP-enzyme activity was measured by using an Amplex® Red Monoamine Oxidase kit (Invitrogen #A12214). 100 nL of the gradiently-diluted to-be-tested compound (solvent DMSO) was added to a 384-well plate. 25 μL of 10 nM VAP-1 enzyme solution was added and incubated for 30 minutes at room temperature. A substrate mixture of VAP-1 enzyme (200 μM Amplex Red, 1 U/mL HRP, 1 mM Benzylamine) was added and incubated for 60 minutes at room temperature. After the incubation, the fluorescent signal was read with a microplate reader Envision (excitation light wavelength 530-560 nm, emission light wavelength 590 nm). The fluorescence signal value after the background signal was removed was analyzed by Prism software, and the IC50 of the sample against the VAP-1 enzyme was calculated.

[3] = Distribution of compounds in liver and blood of CD-1 mice; format: in vivo; details: single oral dose
Protocol: Experimental purpose: distribution of compounds in liver and blood of CD-1 mice was tested;
CD-1 Mice (male, 25-35 g, 6-9 weeks old, Shanghai Slack);
Experimental procedure: after oral administration, the drug was distributed in the liver and blood of rodents, candidate compounds in the experiment were formulated into a clear solution to be administered to mice in a single oral dose. The oral solvent was a certain proportion of an aqueous solution of hydroxypropyl P-cyclodextrin or a physiological saline solution. The concentration of the drug in the liver and blood was measured at 1 hour and 4 hours after administration.

CYP1A2 = CYP1A2 (Homo sapiens (Human), UniProt P05177); assay: Human liver microsomal CYP inhibition assay; format: in vitro ADME; details: human liver microsomes, 5-in-1 probe substrate
Protocol: (§1) The purpose of the study was to evaluate the inhibition of the test sample on human liver microsomal cytochrome P450 isozymes (CYP1A2, CYP2C9, CYP2C19, CYP2D6, and CYP3A4) by using the CYP isozyme 5-in-1 probe substrate.
(§2) Mixed human liver microsomes (HLM) were purchased from Corning Inc. (Steuben, N.Y., USA) or XenoTech, LLC. (Lenexa, Kans., USA) or other suppliers, and stored at the temperature below −70° C. prior to use.
(§3) A series of diluted test sample working solution were added to an incubation system containing cofactors of human liver microsomes, a probe substrate and a circulation system, and the control without a test substance but containing a solvent was used as enzyme activity control (100%). The concentration of the metabolite produced by the probe sample in the sample was determined by liquid chromatography-tandem mass spectrometry (LC-MS/MS). Non-linear regression analysis was performed on the concentration of the average percent activity of the test sample by using SigmaPlot (V.11). The IC50 value was calculated by a three-parameter or four-parameter recursive logarithmic equation.

CYP2D6 = CYP2D6 (Homo sapiens (Human), UniProt P10635); assay: Human liver microsomal CYP inhibition assay; format: in vitro ADME; details: human liver microsomes, 5-in-1 probe substrate
Protocol: as §1, §2, §3

CYP2C19 = CYP2C19 (Homo sapiens (Human), UniProt P33261); assay: Human liver microsomal CYP inhibition assay; format: in vitro ADME; details: human liver microsomes, 5-in-1 probe substrate
Protocol: as §1, §2, §3

CYP3A4 = CYP3A4 (Homo sapiens (Human), UniProt P08684); assay: Human liver microsomal CYP inhibition assay; format: in vitro ADME; details: human liver microsomes, 5-in-1 probe substrate
Protocol: as §1, §2, §3

CYP2C9 = CYP2C9 (Homo sapiens (Human), UniProt P11712); assay: Human liver microsomal CYP inhibition assay; format: in vitro ADME; details: human liver microsomes, 5-in-1 probe substrate
Protocol: as §1, §2, §3

T1 sequence (Q16853 whole entry): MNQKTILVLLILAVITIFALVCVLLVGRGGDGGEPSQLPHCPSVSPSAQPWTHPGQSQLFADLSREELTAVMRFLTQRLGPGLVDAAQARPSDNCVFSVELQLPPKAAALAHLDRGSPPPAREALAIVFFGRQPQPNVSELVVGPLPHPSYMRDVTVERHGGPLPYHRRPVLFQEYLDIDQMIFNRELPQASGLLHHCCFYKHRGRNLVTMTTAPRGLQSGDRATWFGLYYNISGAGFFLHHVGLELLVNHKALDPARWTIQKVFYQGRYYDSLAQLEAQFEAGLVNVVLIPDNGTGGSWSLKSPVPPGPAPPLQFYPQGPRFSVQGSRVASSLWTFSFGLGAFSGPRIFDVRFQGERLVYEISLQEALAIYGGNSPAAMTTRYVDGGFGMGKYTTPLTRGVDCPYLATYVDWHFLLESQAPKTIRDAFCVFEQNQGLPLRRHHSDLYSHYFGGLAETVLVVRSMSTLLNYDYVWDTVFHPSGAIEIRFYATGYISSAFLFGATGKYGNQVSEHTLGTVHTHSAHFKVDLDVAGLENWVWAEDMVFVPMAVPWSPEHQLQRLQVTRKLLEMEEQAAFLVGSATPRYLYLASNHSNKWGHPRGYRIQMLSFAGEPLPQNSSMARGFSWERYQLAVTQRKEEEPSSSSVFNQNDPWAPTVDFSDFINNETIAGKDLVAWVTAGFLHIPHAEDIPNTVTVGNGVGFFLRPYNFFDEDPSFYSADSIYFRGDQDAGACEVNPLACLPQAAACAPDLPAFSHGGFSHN
hERG potassium channel, sequence (Q12809 whole entry): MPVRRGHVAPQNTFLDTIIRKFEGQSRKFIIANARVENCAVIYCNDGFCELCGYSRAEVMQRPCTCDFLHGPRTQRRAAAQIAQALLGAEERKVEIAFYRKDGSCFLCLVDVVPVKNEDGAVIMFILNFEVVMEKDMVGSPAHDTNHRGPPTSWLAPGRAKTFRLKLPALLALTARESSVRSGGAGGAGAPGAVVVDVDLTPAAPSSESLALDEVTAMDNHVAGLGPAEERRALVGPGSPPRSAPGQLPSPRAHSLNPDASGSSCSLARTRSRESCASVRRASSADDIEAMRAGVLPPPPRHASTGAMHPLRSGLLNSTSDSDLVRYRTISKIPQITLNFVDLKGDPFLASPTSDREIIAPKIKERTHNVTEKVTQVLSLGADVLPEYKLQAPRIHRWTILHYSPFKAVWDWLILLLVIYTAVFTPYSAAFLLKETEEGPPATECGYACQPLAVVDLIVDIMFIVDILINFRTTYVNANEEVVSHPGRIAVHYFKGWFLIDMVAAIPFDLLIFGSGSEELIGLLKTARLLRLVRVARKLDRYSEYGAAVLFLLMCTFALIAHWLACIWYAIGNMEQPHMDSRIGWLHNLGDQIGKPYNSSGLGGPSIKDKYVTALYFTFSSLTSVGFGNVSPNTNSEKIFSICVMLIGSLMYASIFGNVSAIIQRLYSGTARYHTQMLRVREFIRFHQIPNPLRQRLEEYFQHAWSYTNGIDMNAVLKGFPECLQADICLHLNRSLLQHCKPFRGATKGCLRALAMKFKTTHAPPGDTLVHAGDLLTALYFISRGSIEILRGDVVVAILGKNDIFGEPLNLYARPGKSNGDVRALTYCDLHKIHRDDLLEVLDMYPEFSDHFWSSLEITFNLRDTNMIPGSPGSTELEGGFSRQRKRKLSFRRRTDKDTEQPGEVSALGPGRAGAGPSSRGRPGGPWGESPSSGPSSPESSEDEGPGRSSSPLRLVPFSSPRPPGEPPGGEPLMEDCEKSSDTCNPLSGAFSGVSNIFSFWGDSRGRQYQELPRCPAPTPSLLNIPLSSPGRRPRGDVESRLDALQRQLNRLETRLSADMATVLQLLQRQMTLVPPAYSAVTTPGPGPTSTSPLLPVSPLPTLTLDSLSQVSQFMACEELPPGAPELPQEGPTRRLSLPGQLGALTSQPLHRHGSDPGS
CYP1A2, sequence (P05177 whole entry): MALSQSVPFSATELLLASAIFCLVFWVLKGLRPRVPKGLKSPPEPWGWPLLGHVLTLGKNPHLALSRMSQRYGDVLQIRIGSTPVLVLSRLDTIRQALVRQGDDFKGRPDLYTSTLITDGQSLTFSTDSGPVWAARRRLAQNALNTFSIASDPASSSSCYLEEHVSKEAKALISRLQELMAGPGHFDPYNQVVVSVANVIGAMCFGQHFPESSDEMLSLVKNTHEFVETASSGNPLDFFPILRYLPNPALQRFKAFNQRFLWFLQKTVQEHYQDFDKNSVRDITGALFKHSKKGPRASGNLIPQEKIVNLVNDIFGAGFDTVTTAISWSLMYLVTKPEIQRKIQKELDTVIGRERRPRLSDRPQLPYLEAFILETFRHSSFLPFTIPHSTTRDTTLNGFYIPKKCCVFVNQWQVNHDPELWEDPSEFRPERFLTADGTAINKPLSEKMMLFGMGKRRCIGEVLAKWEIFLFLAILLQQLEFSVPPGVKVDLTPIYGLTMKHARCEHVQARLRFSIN
CYP2D6, sequence (P10635 whole entry): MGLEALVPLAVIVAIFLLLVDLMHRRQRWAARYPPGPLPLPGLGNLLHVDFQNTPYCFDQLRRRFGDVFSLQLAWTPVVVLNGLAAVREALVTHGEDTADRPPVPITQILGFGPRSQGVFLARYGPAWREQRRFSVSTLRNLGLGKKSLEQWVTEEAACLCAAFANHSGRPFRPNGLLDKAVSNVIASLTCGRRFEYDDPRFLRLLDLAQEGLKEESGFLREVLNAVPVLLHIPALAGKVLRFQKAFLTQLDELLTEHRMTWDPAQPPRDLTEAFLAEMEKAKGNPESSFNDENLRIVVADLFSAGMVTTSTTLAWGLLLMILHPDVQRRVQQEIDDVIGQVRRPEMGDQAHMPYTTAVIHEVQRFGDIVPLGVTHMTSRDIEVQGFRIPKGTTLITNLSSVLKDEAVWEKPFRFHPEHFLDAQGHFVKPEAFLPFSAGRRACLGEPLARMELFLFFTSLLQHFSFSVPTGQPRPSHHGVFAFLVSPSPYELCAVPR
CYP2C19, sequence (P33261 whole entry): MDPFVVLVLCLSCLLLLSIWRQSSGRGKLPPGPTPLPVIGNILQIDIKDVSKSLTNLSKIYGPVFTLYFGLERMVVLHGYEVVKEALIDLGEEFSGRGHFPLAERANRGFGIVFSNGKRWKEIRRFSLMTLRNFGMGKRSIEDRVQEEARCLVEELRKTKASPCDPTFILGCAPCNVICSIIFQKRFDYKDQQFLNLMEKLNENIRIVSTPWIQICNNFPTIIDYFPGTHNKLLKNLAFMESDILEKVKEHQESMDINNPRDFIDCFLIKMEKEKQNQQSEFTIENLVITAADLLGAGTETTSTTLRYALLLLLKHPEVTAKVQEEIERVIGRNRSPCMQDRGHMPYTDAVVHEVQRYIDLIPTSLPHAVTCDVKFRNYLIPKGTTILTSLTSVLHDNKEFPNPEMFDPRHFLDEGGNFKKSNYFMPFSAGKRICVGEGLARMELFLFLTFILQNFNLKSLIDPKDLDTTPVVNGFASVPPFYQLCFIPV
CYP3A4, sequence (P08684 whole entry): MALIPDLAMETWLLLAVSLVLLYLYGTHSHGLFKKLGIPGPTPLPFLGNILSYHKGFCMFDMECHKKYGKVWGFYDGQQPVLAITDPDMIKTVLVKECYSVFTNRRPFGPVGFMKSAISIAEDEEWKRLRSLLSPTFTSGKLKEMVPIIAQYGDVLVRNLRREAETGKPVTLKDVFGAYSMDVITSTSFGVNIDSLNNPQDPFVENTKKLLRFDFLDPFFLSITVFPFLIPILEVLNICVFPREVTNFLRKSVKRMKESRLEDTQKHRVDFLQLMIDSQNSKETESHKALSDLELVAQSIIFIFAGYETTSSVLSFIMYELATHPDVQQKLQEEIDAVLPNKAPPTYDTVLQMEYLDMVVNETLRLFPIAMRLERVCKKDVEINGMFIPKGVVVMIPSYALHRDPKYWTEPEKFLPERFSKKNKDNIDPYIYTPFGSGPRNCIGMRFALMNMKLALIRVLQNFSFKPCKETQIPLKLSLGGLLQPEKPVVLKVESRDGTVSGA
CYP2C9, sequence (P11712 whole entry): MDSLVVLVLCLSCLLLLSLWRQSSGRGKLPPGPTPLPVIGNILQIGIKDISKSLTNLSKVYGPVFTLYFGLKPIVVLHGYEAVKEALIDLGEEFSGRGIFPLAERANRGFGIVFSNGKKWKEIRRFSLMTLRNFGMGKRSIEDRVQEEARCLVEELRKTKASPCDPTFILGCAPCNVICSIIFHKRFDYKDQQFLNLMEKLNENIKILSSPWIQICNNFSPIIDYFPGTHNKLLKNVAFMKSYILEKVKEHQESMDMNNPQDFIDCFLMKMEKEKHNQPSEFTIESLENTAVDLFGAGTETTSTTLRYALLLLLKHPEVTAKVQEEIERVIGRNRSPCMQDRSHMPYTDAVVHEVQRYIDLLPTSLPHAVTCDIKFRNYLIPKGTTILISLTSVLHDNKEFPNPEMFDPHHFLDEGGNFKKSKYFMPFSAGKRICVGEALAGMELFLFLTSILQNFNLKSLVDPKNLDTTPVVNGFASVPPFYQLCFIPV

IC50 (VAP-1/SSAO [1]) | IC50 (VAP-1/SSAO [2]) | Liver Concentration ([3]; @1.0 hour) | Liver Concentration/Plasma Concentration ratio ([3]; @1.0 hour) | Plasma Concentration ([3]; @1.0 hour) | Liver Concentration ([3]; @4.0 hour) | Liver Concentration/Plasma Concentration ratio ([3]; @4.0 hour) | Plasma Concentration ([3]; @4.0 hour) | IC50 (CYP1A2) | IC50 (CYP2D6) | IC50 (CYP2C19) | IC50 (CYP3A4) | IC50 (CYP2C9) | SMILES | IC50 (hERG potassium channel; QPatch whole cell patch clamp, CHO-hERG, 0.24-30.00 μM) | Inhibition of hERG potassium current (in words) (hERG potassium channel; conclusion statement)
0.0003 µM | 0.0004 µM |  |  |  |  |  |  |  |  |  |  |  | Cc1noc(-c2ccc(OC/C(=C/F)CN)cc2)n1.Cl [WX008] | > 30 µM | weak inhibition
 |  | 13140 | 10 | 1470 | 2120 | 14 | 154 | 9 µM | 38 µM | 76 µM | > 50 µM | 32 µM | CC(C)(C)NC(=O)c1ccc(OC/C(=C/F)CN)cc1.Cl [PXS-4728A, reference compound] |  | 
0.0015 µM | 0.0009 µM |  |  |  |  |  |  |  |  |  |  |  | Cn1nc(-c2ccc(OC/C(=C/F)CN)cc2Cl)nc1N1CCOCC1 [WX107] |  | 

— patent US11001563B2, “SSAO inhibitor” (SHANDONG DANHONG PHARMACEUTICAL CO., LTD., priority 2017, dated 2021)
